The text below walks through data of PMC6830221, “Engineering a surrogate human heteromeric α/β glycine receptor orthosteric site exploiting the structural homology and stability of acetylcholine-binding protein” (IUCrJ, 2019).

One may read the Kd as the free concentration of one partner at which half of the binding sites on the other are occupied at equilibrium, for simple one-to-one binding. In general, Ki refers to the equilibrium dissociation constant of an inhibitor or competing ligand from its target.

The target in data set [1] is AcAChBP. Conditions: ref Hansen et al., cited from earlier work.
For data set [2], the target named is AcAChBP variant I (Aplysia californica, UniProt Q8WSF8, I135S/Q74R/T53F/W164F/Y110A). Here is the method: (§1) Measurements were recorded using a PerkinElmer LS-55 spectrophotometer with the detector sensitivity set to 750 V. Stock solutions of 10 µg ml^−1 GBP and AcAChBP were prepared, along with two strychnine stock solutions of 100 µM and 1 mM in the same buffer as used for the ITC experiments. The protein samples (2 ml) were excited at a wavelength of 280 nm, and emission was recorded between 300 and 400 nm. For GBP, aliquots of 20 µl of the 1 mM strychnine stock were used, followed by mixing. For AChBP, additions of 2 µl of the 100 µM strychnine stock were made, followed by mixing. Experiments were carried out in triplicate and the percentage change in fluorescence was calculated. Data were analyzed using Microsoft Excel and GraphPad Prism 7.

In data set [3] the target is AcAChBP variant II (Aplysia californica, UniProt Q8WSF8, G162E/I135S/Q74R/T53F/Y110A). Here is the method:
as §1

Data set [4] has as its target T1, WT AcAChBP (Aplysia californica, UniProt Q8WSF8). Kind of data set: Tryptophan fluorescence-quenching assay. Format: binding. Details: made in house; host or cells: baculovirus/Sf9. As for the experimental part: as §1
Data set [5] deals with AcAChBP variant II (T53F, Q74R, Y110A, I135S, G162E) (Aplysia californica, UniProt Q8WSF8, G162E/I135S/Q74R/T53F/Y110A). To be noted: Table S1, Variant-II. Here is the method:
(§2) Fluorescence-based screening by differential scanning fluorimetry (DSF; see, for example, Eadsforth et al., 2012[▸]) was used to determine the melting temperature (T m) values. An Mx3005P RT PCR system (Stratagene) was used to monitor protein unfolding by the increase in fluorescence of SYPRO Orange dye (Invitrogen). Assays were carried out in 40 µl volumes with proteins at around 10 µM in 50 mM Tris–HCl, 250 mM NaCl pH 7.5 in 96-well RT PCR plates (ABgene). To investigate the influence of the chemical probe strychnine, 1 µl of strychnine dissolved in DMSO or buffer and then diluted with buffer was incubated with the protein solutions for 5 min prior to 71 cycles of 1°C temperature increments starting at 25°C. After each 1°C increase the sample was excited at 492 nm and fluorescence emission was recorded at 610 nm. The melting temperatures were plotted against a reference control sample of DMSO only. The strychnine concentration varied between […], with a requirement to limit the concentration of DMSO in the final mixture to <2.5%.

The target of data set [6] is T2, variant III, glycine-binding protein (GBP) (Aplysia californica, UniProt Q8WSF8, C207G/C208T/G162E/I135S/P209G/Q74R/S206K/T53F/Y110A). As for the experimental part: as §2
Data set [7] has as its target AcAChBP variant I (T53F, Q74R, Y110A, I135S, W164F) (Aplysia californica, UniProt Q8WSF8, I135S/Q74R/T53F/W164F/Y110A). Conditions: Table S1, Variant-I, biphasic melting. Here is the method:
as §2

The conditions of data set [8]: ref Haynes, 2015; cited from earlier work.
Data set [9] addresses recombinant homomeric GlyR-α1. To be noted: ITC, ref Wöhri et al., 2013; cited from earlier work. On the technique in general: In ITC the heat of successive injections is recorded.
Data set [10] deals with T2, variant III, glycine-binding protein (GBP). The data set can be described thus: biochemical. As for the experimental part:
as §1

Data set [11] addresses AcAChBP. To be noted: ref Brams et al., 2011; cited from earlier work.
In data set [12] the target is T1, WT AcAChBP. Kind of data set: biochemical. Here is the method:
(§3) The interaction of strychnine with AcAChBP and GBP was investigated using ITC. Measurements were carried out with a MicroCal PEAQ-ITC (Malvern Panalytical) at 25°C. The protein solutions (10 µM AcAChBP, 40 µM GBP) were prepared by dialysis against buffer (50 mM Tris–HCl pH 7.5, 250 mM NaCl) at 4°C overnight. Strychnine solutions (concentrations of 100 and 500 µM) were prepared in the same buffer. For the experiments, the initial injection of one 0.4 µl aliquot was followed by 17 × 2 µl injections at 3 min intervals. In each case the injection needle acted as a paddle, stirring the cell contents at 750 rev min^−1, and the reference was set at 10 µcal s^−1. Data were analyzed using the software supplied by the manufacturer to calculate K d, ΔH, −TΔS, ΔG and N, which were derived from a one-binding-site model. Control measurements, buffer into buffer, strychnine into buffer and buffer into protein solutions, were used to determine an appropriate offset adjustment. Examples of the data, averaged parameters and standard errors derived from three titrations are presented in Supplementary Fig. S1.

For data set [13], the target named is T2, variant III, glycine-binding protein (GBP). The data set can be described thus: biochemical. Here is the method:
as §3
The source holds these as a separate data set.

The target in data set [14] is recombinant homomeric GlyR-α3. To be noted: surface plasmon resonance, ref Huang et al., 2015; cited from earlier work. On the technique in general: Surface plasmon resonance follows binding to a sensor surface in real time, without labels.
The target of data set [15] is recombinant homomeric GlyR-α1. To be noted: radioligand saturation assay, ref Wöhri et al., 2013; cited from earlier work.
Data set [16] addresses recombinant homomeric GlyR-α3. Conditions: ITC, ref Huang et al., 2015; cited from earlier work.
Data set [17] concerns the target T2, variant III, glycine-binding protein (GBP). This is another data set of the same source.
[18] abbreviates: binding to AcAChBP, stopped-flow spectrofluorimetry, 2005.

Several values for one entry are separate records, joined by “and”; a condition that tells them apart may be missing. Equal entries are not always repeated. Where two headings read alike, the source gives them in different places.

T2 sequence (Q8WSF8 18-236 C207G/C208T/G162E/I135S/P209G/Q74R/S206K/T53F/Y110A limits assumed): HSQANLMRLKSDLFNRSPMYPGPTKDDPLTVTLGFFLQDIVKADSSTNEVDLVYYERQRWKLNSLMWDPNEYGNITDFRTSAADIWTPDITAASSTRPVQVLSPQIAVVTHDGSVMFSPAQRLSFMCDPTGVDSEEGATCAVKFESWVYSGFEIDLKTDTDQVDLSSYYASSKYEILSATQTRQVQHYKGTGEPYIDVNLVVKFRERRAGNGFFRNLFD
T1 sequence (Q8WSF8 entry or part of it): as the sequence (Q8WSF8 18-236 C207G/C208T/G162E/I135S/P209G/Q74R/S206K/T53F/Y110A limits assumed) above, with F36T, R57Q, A93Y, S118I, E145G, K189S, G190C, T191C, G192P counted along it
Sequence of AcAChBP variant II (Q8WSF8 18-236 T53F/Q74R/Y110A/I135S/G162E limits assumed): as the sequence (Q8WSF8 18-236 C207G/C208T/G162E/I135S/P209G/Q74R/S206K/T53F/Y110A limits assumed) above, with K189S, G190C, T191C, G192P counted along it
Sequence of AcAChBP variant I (T53F, Q74R, Y110A, I135S, W164F) (Q8WSF8 18-236 T53F/Q74R/Y110A/I135S/W164F limits assumed): as the sequence (Q8WSF8 18-236 C207G/C208T/G162E/I135S/P209G/Q74R/S206K/T53F/Y110A limits assumed) above, with E145G, W147F, K189S, G190C, T191C, G192P counted along it
Sequence of AcAChBP variant I (Q8WSF8 18-236 T53F/Q74R/Y110A/I135S/W164F limits assumed): as the sequence (Q8WSF8 18-236 C207G/C208T/G162E/I135S/P209G/Q74R/S206K/T53F/Y110A limits assumed) above, with E145G, W147F, K189S, G190C, T191C, G192P counted along it
Sequence of AcAChBP variant II (T53F, Q74R, Y110A, I135S, G162E) (Q8WSF8 18-236 T53F/Q74R/Y110A/I135S/G162E limits assumed): as the sequence (Q8WSF8 18-236 C207G/C208T/G162E/I135S/P209G/Q74R/S206K/T53F/Y110A limits assumed) above, with K189S, G190C, T191C, G192P counted along it

For `CN1CCC[C@H]1c1cccnc1` [nicotine], the Kd in data set [1] (setting [18]) is 250 nM; in data set [4] (binding to WT AcAChBP, tryptophan fluorescence, three titrations, read-out: Kd) it was 245 nM. In addition, the “ligand binding (tryptophan fluorescence)” value in data set [2] and in [3] was “Neither variant I nor variant II appeared to be able to bind nicotine” in each case.

Consider `O=C1C[C@@H]2OCC=C3CN4CC[C@]56c7ccccc7N1[C@H]5[C@H]2[C@H]3C[C@H]46` [strychnine], for which the “∆Tm (C) + strychnine” value in data set [5] is listed as “+5 C”; in data set [6] (Table S1, Variant-III (GBP)), “+3 C”; in data set [7] (first value), “+5 C”; in [7] (second value), “+25 C”. Also, the pKa result in data set [8] was “approximately 8.3”. Besides, the equilibrium dissociation constant (Kd) in data set [9] is 138 nM; in [10] (Kd, tryptophan fluorescence, GBP, n=3), 26.6 µM and 27 µM; in data set [1] (AcAChBP, stopped-flow spectrofluorimetry assay, 2004), 15 nM; in data set [12], 74.1 nM; in data set [13], 28.8 µM; in data set [14], 43 nM. In addition, the equilibrium dissociation constant (Kd) is 52 nM in data set [15], 52 nM in data set [16] and 155 nM in data set [4]. Further, the Ki in data set [11] is 38 nM.

With `CN1[C@@H]2CC[C@H]1C[C@@H](OC(=O)c1c[nH]c3ccccc13)C2` [tropisetron], the Kd in [1] (setting [18]) is 480 nM; in data set [4] it was 275 nM.

As to `NCC(=O)O` [glycine], the ΔTm entry in data set [6] (ligand binding to variant III (GBP), DSF) is “+2 °C”. In [10] (variant III (GBP)), the “association with variant III (fluorescence assay)” value is listed as “failed to show any binding”. Moreover, the “association with variant III (biolayer interferometry)” value in data set [17] is listed as “failed to show any binding”. The “association with variant III (ITC)” value in [13] (variant III (GBP)) was “failed to show any binding”. The “ligand binding (tryptophan fluorescence)” value in data set [2] and in data set [3] was “neither did the fluorescence assay register any glycine binding” each time.
